# How the values were obtained:
# ADNP gene expression = details: cited from earlier work; for ADNP gene expression increase: somatosensory cortex of post-natal day 7 rats, sedative dose
# [1] = tested on: caspase-3 activation in the hippocampus and somatosensory cortex; test: Ketamine-induced neuronal cell death / injury, low-dose ketamine pre-treatment; assay type: in vivo, rats; details: for high dose ketamine induced injury: low dose ketamine 5 mg/kg, NAP administration
# Excerpt: ADNP induction may be partially responsible for the efficacy of a low-dose ketamine pre-treatment in preventing ketamine-induced neuronal cell death. […] It is therefore theorized that low-dose ketamine prevents high-dose ketamine injury at least in part by increasing expression of ADNP.
# Neurons = Neurons treated with low concentration ketamine: ADNP levels and growth cones; assay type: cell-based
# Excerpt: We believe that low-dose ketamine, by inducing ADNP, does more than could be with NAP alone.
# growth cones = details: cited from earlier work
Compound,ADNP gene expression increase (ADNP gene expression),"apoptosis ([1]; high-dose ketamine, rats)","expression of ADNP ([1]; high-dose ketamine, rats)",high dose ketamine induced injury [1],ADNP levels ([1]; low-dose ketamine),"caspase-3 activation ([1]; low-dose ketamine, hippocampus and somatosensory cortex)",gene expression of ADNP (ADNP gene expression; anesthetic doses),"ADNP protein levels (ADNP gene expression; low doses, including in the somatosensory cortex)",ADNP expression (ADNP gene expression; low doses),negative effects of decreased growth cones (Neurons; 50 μM),"ADNP levels (Neurons; 50 μM, compared with higher ketamine dosing)",location of primary increase in ADNP (Neurons; following ketamine treatment),"total cellular ADNP levels (Neurons; low concentration exposure, 50 or 100 μM)",ADNP in neurites (Neurons; low concentration of ketamine),growth cones (Neurons; low concentration of ketamine),invasion of dynamic microtubules into growth cones (growth cones)
C[C@]12N[C@H](Cc3ccccc31)c1ccccc12 [MK801],1.5 fold,,,,,,,,,,,,,,,
CNC1(c2ccccc2Cl)CCCCC1=O (stereo not drawn) [ketamine],1.5 fold,induce apoptosis,induce,blocks high dose ketamine induced injury,increases ADNP levels,prevents caspase-3 activation,induce gene expression of ADNP,increase ADNP protein levels,induce ADNP expression,not observed,increased at a rate equivalent to higher ketamine dosing,the primary increase in ADNP occurred in the nucleus,notably increased,significant increase,stably expanded growth cones,
NAPVSIPQ,,,,blocks high dose ketamine induced injury,,,,,,,,,,,,enhance the invasion of dynamic microtubules into growth cones

# Reference: patent US11571396B2, “Ketamine for treatment of ADNP syndrome and sensory processing deficits” (priority 2019, dated 2023)
